# “And” between values parts separate entries of the source, which are not always exact repeats. Equal values may be shown once.
# Tests used:
# [1] = system: lasered eyes of cynomologous monkeys (intraocular pressure); assay: Intraocular pressure by pneumatonometry, "DeSantis" test, laser-treated hypertensive right eye (OD); type: in vivo, cynomologous monkey; conditions: for IOP (individual monkey) / Mean IOP / Mean % change of IOP / Mean % change of IOP versus control: OD (lasered)
# Source text: (§1) Because there are certain differences in the eyes of rabbits and man, it was desired to test topical carbonic anhydrase inhibition by the compound of the present invention in a subhuman primate species to confirm the presence of activity by this route. The cynomologous monkey was chosen to represent the species. Because drug effects on intraocular pressure are sometimes less dramatic or not demonstrable using an eye that is normotensive, a test protocol known as the "DeSantis" test was developed. It involves testing the carbonic anhydrase inhibitor effects in eyes made hypertensive by laser treatment. […] After the eye was allowed to recover from the inflammatory process which accompanied the laser treatment, it was used to test the subject drugs.
# (§2) Intraocular pressure (IOP) was determined using an Alcon Pneumatonograph after light corneal anesthesia with proparacaine, before and at 1, 3 and 7 hours after installation of drug to both eyes of each of six cynomologous monkeys per group. […] Animals were trained to sit in restraint chairs and to accept the pressure measurement. Following the measurement, residual anesthetic was washed out with saline.
# (§3) Data for the intraocular pressure studies are presented in the attached tables, where the lasered eyes but not the normal eyes show significant reduction of intraocular pressure compared to control animals.
# (§4) In the tables below "OD" refers to ocular dexter, and "OS" refers to ocular sinnister. This is simply another way of saying right and left eye. The designation number in the lefthand column of each table refers to the designation number assigned to each monkey. "SE" refers to standard error.
# [2] = system: normal eyes of cynomologous monkeys (intraocular pressure); assay: Intraocular pressure by pneumatonometry, normal left eye (OS); type: in vivo, cynomologous monkey
# Source text: as §1, §2, §3, §4
# [3] = system: eyes of rabbits (intraocular pressure); assay: Measurement of intraocular pressure ("Salted Rabbit Test"), applanation tonometry, topical 1% suspension; type: in vivo; conditions: for Ave. change in IOP: 50 μl of 1% suspension q 2 min x 3
# Protocol: ("Salted Rabbit Test") (IOP)
# Rabbits (3-4 months old) were maintained on […] solution in place of drinking water for 3 weeks prior to the determination of IOP because it has been shown that a diet deficient in sodium produces a variable response to this class of drugs. During this 3 week period numerous IOP measurements were made to familiarize the rabbits with this procedure. Baseline IOP measurements were determined by applanation tonometry following topical administration of 3 drops of 1% suspension of analog CAI inhibitor to one eye. The fellow eye received blank vehicle. The observer was masked. Each eye received 1 to 2 drops of proparacaine hydrochloride (0.5%) to anethetize the cornea prior to placing the sensor tip of the tonometer flot on the cornea. IOP measurements were determined over 180 minutes at 20 minute intervals. Changes in IOP were expressed as:
# IOP change=IOP (dosed eye - control eye)t -IOP (dosed eye prior to
# administration - control eye)t=O
# Intraocular pressure (IOP) measurements of 6-hydroxyethoxy-2-benzothiazole sulfonamide in rabbits^a maintained on 3% sodium chloride drinking water following topical instillation.^b,c
# ^b The dose was 50 μl of a 1% suspension q 2 minutes for a total of 3 doses
# [4] = Table 1, 1.0% gel, 0 hr (before drug)
# [5] = Table 2 (six days later), 1.0% gel, 0 hr (before drug)
# [6] = Table 2 (six days later), 1.0% gel, 3 hr
# [7] = Table 2 (six days later), 1.0% gel, 7 hr
# [8] = Table 3, 3.0% gel, 0 hr (before drug)
# [9] = Table 4, 3.0% gel, 0 hr (before drug)
# [10] = Table 4, 3.0% gel, 0 hr (before drug), listed as 6-Hydroxyethoxy-2-benzothiazolesulfomaide
# [11] = Table 4, 3.0% gel, 1 hr, listed as 6-Hydroxyethoxy-2-benzothiazolesulfomaide
# [12] = Table 4, 3.0% gel, 3 hr, listed as 6-Hydroxyethoxy-2-benzothiazolesulfomaide
# [13] = Table 4, 3.0% gel, 7 hr, listed as 6-Hydroxyethoxy-2-benzothiazolesulfomaide
compound,measurement,setting,value
NS(=O)(=O)c1nc2ccc(OCCO)cc2s1 [6-hydroxyethoxy-2-benzothiazolesulfonamide],IOP (individual monkey),[1]; [4],28 mmHg and 46 mmHg and 35 mmHg and 48 mmHg and 38 mmHg and 25 mmHg
same,Mean IOP,[1]; [4],36.7 mmHg
same,IOP (individual monkey),"[1]; Table 1, 1.0% gel, 3 hr",23 mmHg and 36 mmHg and 30 mmHg and 40 mmHg and 34 mmHg
same,Mean % change of IOP,"[1]; Table 1, 1.0% gel, 3 hr",-14.9%
same,Mean IOP,"[1]; Table 1, 1.0% gel, 3 hr",31.0 mmHg
same,IOP (individual monkey),"[1]; Table 1, 1.0% gel, 7 hr",24 mmHg and 46 mmHg and 33 mmHg and 41 mmHg and 34 mmHg and 25 mmHg
same,Mean % change of IOP,"[1]; Table 1, 1.0% gel, 7 hr",-7.5%
same,Mean IOP,"[1]; Table 1, 1.0% gel, 7 hr",33.8 mmHg
same,IOP (individual monkey),[1]; [5],51 mmHg and 52 mmHg and 34 mmHg and 38 mmHg and 28 mmHg and 30 mmHg
same,Mean IOP,[1]; [5],38.8 mmHg
same,IOP (individual monkey),[1]; [6],38 mmHg and 50 mmHg and 29 mmHg and 35 mmHg and 27 mmHg and 26 mmHg
same,Mean % change of IOP,[1]; [6],-11.5%
same,Mean IOP,[1]; [6],34.2 mmHg
same,IOP (individual monkey),[1]; [7],36 mmHg and 48 mmHg and 28 mmHg and 37 mmHg and 24 mmHg and 32 mmHg
same,Mean % change of IOP,[1]; [7],-10.8%
same,Mean IOP,[1]; [7],34.2 mmHg
same,IOP (individual monkey),[1]; [8],50 mmHg and 35 mmHg and 33 mmHg and 55 mmHg and 40 mmHg and 44 mmHg
same,Mean IOP,[1]; [8],42.8 mmHg
same,IOP (individual monkey),"[1]; Table 3, 3.0% gel, 1 hr",45 mmHg and 33 mmHg and 30 mmHg and 52 mmHg and 35 mmHg and 50 mmHg
same,Mean % change of IOP versus control,"[1]; Table 3, 3.0% gel, 1 hr",-4.9%
same,Mean IOP,"[1]; Table 3, 3.0% gel, 1 hr",40.8 mmHg
same,IOP (individual monkey),"[1]; Table 3, 3.0% gel, 3 hr",41 mmHg and 20 mmHg and 30 mmHg and 57 mmHg and 32 mmHg and 45 mmHg
same,Mean % change of IOP versus control,"[1]; Table 3, 3.0% gel, 3 hr",-14.0%
same,Mean IOP,"[1]; Table 3, 3.0% gel, 3 hr",37.5 mmHg
same,IOP (individual monkey),"[1]; Table 3, 3.0% gel, 7 hr",37 mmHg and 23 mmHg and 25 mmHg and 55 mmHg and 33 mmHg and 40 mmHg
same,Mean % change of IOP versus control,"[1]; Table 3, 3.0% gel, 7 hr",-18.5%
same,Mean IOP,"[1]; Table 3, 3.0% gel, 7 hr",35.5 mmHg
same,Mean % change of IOP,[1]; [9],0.0%
same,Mean IOP,[1]; [9],44.7 mmHg
same,IOP (individual monkey),[1]; [10],38 mmHg and 55 mmHg and 37 mmHg and 42 mmHg and 50 mmHg and 46 mmHg
same,Mean % change of IOP,"[1]; Table 4, 3.0% gel, 1 hr",-10.1%
same,Mean IOP,"[1]; Table 4, 3.0% gel, 1 hr",40.3 mmHg
same,IOP (individual monkey),[1]; [11],37 mmHg and 50 mmHg and 32 mmHg and 30 mmHg and 53 mmHg and 40 mmHg
same,Mean % change of IOP,"[1]; Table 4, 3.0% gel, 3 hr",-15.0%
same,Mean IOP,"[1]; Table 4, 3.0% gel, 3 hr",38.3 mmHg
same,IOP (individual monkey),[1]; [12],33 mmHg and 47 mmHg and 29 mmHg and 21 mmHg and 45 mmHg and 55 mmHg
same,Mean % change of IOP,"[1]; Table 4, 3.0% gel, 7 hr",-16.8%
same,Mean IOP,"[1]; Table 4, 3.0% gel, 7 hr",37.2 mmHg
same,IOP (individual monkey),[1]; [13],35 mmHg and 55 mmHg and 28 mmHg and 38 mmHg and 32 mmHg
same,effectiveness for topical treatment of glaucoma (in words),[1]; cynomologous monkeys,an effective treating composition for topical treatment of glaucoma
same,IOP (individual monkey),[2]; [4],33 mmHg and 19 mmHg and 24 mmHg and 23 mmHg and 20 mmHg
same,Mean IOP,[2]; [4],25.3 mmHg
same,IOP (individual monkey),"[2]; Table 1, 1.0% gel, 3 hr",34 mmHg and 20 mmHg and 25 mmHg and 19 mmHg and 38 mmHg
same,Mean % change of IOP,"[2]; Table 1, 1.0% gel, 3 hr",+5.2%
same,Mean IOP,"[2]; Table 1, 1.0% gel, 3 hr",26.8 mmHg
same,IOP (individual monkey),"[2]; Table 1, 1.0% gel, 7 hr",34 mmHg and 25 mmHg and 28 mmHg and 22 mmHg and 19 mmHg and 41 mmHg
same,Mean % change of IOP,"[2]; Table 1, 1.0% gel, 7 hr",+11.1%
same,Mean IOP,"[2]; Table 1, 1.0% gel, 7 hr",28.2 mmHg
same,IOP (individual monkey),[2]; [5],30 mmHg and 22 mmHg and 25 mmHg and 27 mmHg and 24 mmHg
same,Mean IOP,[2]; [5],25.0 mmHg
same,IOP (individual monkey),[2]; [6],29 mmHg and 23 mmHg and 26 mmHg and 27 mmHg and 24 mmHg
same,Mean % change of IOP,[2]; [6],+1.9%
same,Mean IOP,[2]; [6],25.3 mmHg
same,IOP (individual monkey),[2]; [7],27 mmHg and 23 mmHg and 28 mmHg and 24 mmHg
same,Mean % change of IOP,[2]; [7],+5.2%
same,Mean IOP,[2]; [7],26.0 mmHg
same,IOP (individual monkey),[2]; [8],27 mmHg and 24 mmHg and 22 mmHg and 26 mmHg and 30 mmHg
same,Mean IOP,[2]; [8],25.5 mmHg
same,IOP (individual monkey),"[2]; Table 3, 3.0% gel, 1 hr",25 mmHg and 29 mmHg and 24 mmHg and 30 mmHg
same,Mean % change of IOP,"[2]; Table 3, 3.0% gel, 1 hr",+1.7%
same,Mean IOP,"[2]; Table 3, 3.0% gel, 1 hr",26.0 mmHg
same,IOP (individual monkey),"[2]; Table 3, 3.0% gel, 3 hr",23 mmHg and 27 mmHg and 28 mmHg and 25 mmHg
same,Mean % change of IOP,"[2]; Table 3, 3.0% gel, 3 hr",-0.4%
same,Mean IOP,"[2]; Table 3, 3.0% gel, 3 hr",25.2 mmHg
same,IOP (individual monkey),"[2]; Table 3, 3.0% gel, 7 hr",23 mmHg and 25 mmHg and 20 mmHg and 29 mmHg and 26 mmHg
same,Mean % change of IOP,"[2]; Table 3, 3.0% gel, 7 hr",-0.6%
same,Mean IOP,"[2]; Table 3, 3.0% gel, 7 hr",25.3 mmHg
same,Mean % change of IOP,[2]; [9],0.0%
same,Mean IOP,[2]; [9],23.3 mmHg
same,IOP (individual monkey),[2]; [10],24 mmHg and 20 mmHg and 18 mmHg and 30 mmHg and 21 mmHg and 27 mmHg
same,Mean % change of IOP,"[2]; Table 4, 3.0% gel, 1 hr",3.3%
same,Mean IOP,"[2]; Table 4, 3.0% gel, 1 hr",23.8 mmHg
same,IOP (individual monkey),[2]; [11],25 mmHg and 16 mmHg and 23 mmHg and 28 mmHg and 24 mmHg and 27 mmHg
same,Mean % change of IOP,"[2]; Table 4, 3.0% gel, 3 hr",-1.8%
same,Mean IOP,"[2]; Table 4, 3.0% gel, 3 hr",22.7 mmHg
same,IOP (individual monkey),[2]; [12],27 mmHg and 18 mmHg and 20 mmHg and 25 mmHg and 21 mmHg
same,Mean % change of IOP,"[2]; Table 4, 3.0% gel, 7 hr",5.5%
same,Mean IOP,"[2]; Table 4, 3.0% gel, 7 hr",24.3 mmHg
same,IOP (individual monkey),[2]; [13],28 mmHg and 20 mmHg and 23 mmHg and 27 mmHg
same,Ave. change in IOP,"[3]; 20 min after dosing, N=12, probability N.S.",-0.2 mm Hg
same,Ave. change in IOP,"[3]; 40 min after dosing, N=12, probability 0.07",-1.1 mm Hg
same,Ave. change in IOP,"[3]; 60 min after dosing, N=12, probability 0.04",-1.1 mm Hg
same,Ave. change in IOP,"[3]; 80 min after dosing, N=12, probability 0.12",-0.8 mm Hg
same,Ave. change in IOP,"[3]; 100 min after dosing, N=12, probability 0.04",-1.2 mm Hg
same,Ave. change in IOP,"[3]; 120 min after dosing, N=12, probability N.S.",-0.5 mm Hg
same,Ave. change in IOP,"[3]; 140 min after dosing, N=12, probability N.S.",0.2 mm Hg
same,Ave. change in IOP,"[3]; 160 min after dosing, N=12, probability N.S.",0.3 mm Hg
same,Ave. change in IOP,"[3]; 180 min after dosing, N=12, probability N.S.",-0.2 mm Hg
same,effectiveness for topical treatment of glaucoma (in words),[3]; rabbits,an effective treating composition for topical treatment of glaucoma
same,Ave. change in IOP,"[3]; time 0 (baseline), N=12 rabbits",0 mm Hg

# — US4975447A, “6-hydroxyethoxy-2-benzothiazolesulfonamide and topical treatment compositions and method for glaucoma” (University of Iowa Research Foundation, priority 1985, dated 1990)
